What was measured:
[1] = molecular target: T1, p56lck GST-SH2 (lck SH2 domain) (Homo sapiens, UniProt P06239); assay: Receptor-ligand equilibrium binding constants by surface plasmon resonance (biosensor), lck SH2 domain; settings: Table 1, compounds of formula (II)
T1 construct: GST (N)

[2] = test system: Inter-leukin 2 (IL-2) production by activated Human Primary T Lymphocytes; assay: Primary T cell assay: inhibition of IL-2 production by activated human primary CD4 positive T lymphocytes; type: cell-based; settings: Homo sapiens, CD4 positive, Table 5; mean IC50 value; CD4 positive T cells activated with anti-CD3/anti-CD28, IL-2 by ELISA; read-out: IC50 (blocking IL-2 production)
Procedure: Summary of Primary T Cell Assay.
Inhibitors of the lck SH2 domain were assayed for their ability to block Inter-leukin 2 (IL-2) production by activated Human Primary T Lymphocytes. Peripheral blood mononuclear cells were isolated from whole blood by centrifugation in ficoll-Pague partitioning medium. CD4 positive cells were purified using negative selection. […] The compounds, at the appropriate dilutions, were added, and the cells were incubated for 60 minutes at 37° C. The CD4 positive T cells were then activated by the addition of anti-CD3 (60 ng/mL), anti CD28 (500 ng/mL) and goat anti mouse IgG coated beads, and incubated overnight at 37° C. The cells were pelleted, and the supernatents assayed for IL-2 by ELISA.
As SH2 domain containing proteins are intracellular, any therapeutic agent must be able to cross biological membranes. […] These characteristics may be quantified by observing inhibition in IL-2 production in human blood CD4 positive T-lymphocytes after T cell receptor and CD28 cross-linking.

T1 sequence (P06239 127-224 limits assumed): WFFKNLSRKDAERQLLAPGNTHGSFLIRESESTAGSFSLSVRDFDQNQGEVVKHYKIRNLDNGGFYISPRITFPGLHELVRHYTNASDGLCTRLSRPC

Kd [1] [µM] | IC50 [2] [µM] | Structure (SMILES)
1.3 | 70 | COc1ccc(Cn2ccc(C)c(NC(=O)C(Cc3ccc(C(C)(C)C(=O)O)cc3)NC(=O)C(C)(C)c3ccc(C(F)(F)F)cc3)c2=O)cc1 (stereo not drawn) [Compound 217]
> 15 | 29 | CCC(CC)(C(=O)NC(Cc1ccc(C2(C(=O)O)CCCC2)cc1)C(=O)Nc1c(C)ccn(Cc2ccc(OC)cc2)c1=O)c1ccc2ccccc2c1 (stereo not drawn) [Compound 125]
1.2 | 169 | CCCCCn1ccc(C)c(NC(=O)C(Cc2ccc(C(C)(C)C(=O)O)cc2)NC(=O)Cc2ccc3ccccc3c2)c1=O (stereo not drawn) [Compound 192]
1.3 | 94 | CCCCCCn1ccc(C)c(NC(=O)C(Cc2ccc(C(C)(C)C(=O)O)cc2)NC(=O)Cc2c(F)c(F)c(F)c(F)c2F)c1=O (stereo not drawn) [Compound 142]
2.3 | 84 | Cc1ccn(CC2CCCCC2)c(=O)c1NC(=O)C(Cc1ccc(C(C)(C)C(=O)O)cc1)NC(=O)Cc1cccc2ccccc12 (stereo not drawn) [Compound 194]
0.18 | 52 | COc1ccc(Cn2ccc(C)c(NC(=O)C(Cc3ccc(C(C)(C)C(=O)O)cc3)NC(=O)Cc3c(OC)ccc4ccccc34)c2=O)cc1 (stereo not drawn) [Compound 187]
2.8 | 107 | Cc1ccn(Cc2ncc(C(F)(F)F)cc2Cl)c(=O)c1NC(=O)[C@H](Cc1ccc(C(C)(C)C(=O)O)cc1)NC(=O)Cc1ccc2ccccc2c1 [Compound 129]
1 | 67 | COc1ccc(Cn2ccc(C)c(NC(=O)C(Cc3ccc(C(C)(C)C(=O)O)cc3)NC(=O)COc3cccc4ccccc34)c2=O)cc1 (stereo not drawn) [Compound 174]
0.17 | 31 | COc1ccc(Cn2cc(Br)c(C)c(NC(=O)[C@H](Cc3ccc(C(C)(C)C(=O)O)cc3)NC(=O)Cc3ccc4ccccc4c3)c2=O)cc1 [Compound 220, 3-[2'-(S)-(2""-Naphthylacetyl)amino-3'-[4"-(1'"-carboxy-1'"-methyl)ethyl]benzene]propanoylamino-5-bromo-1-(4-methoxybenzyl)-4-methyl-2-pyridone]
3.6 | 52 | COc1ccc(Cn2ccc(C)c(NC(=O)[C@H](Cc3ccc(C(C)(C)C(=O)O)cc3)NC(=O)C(C)(C)c3cccc4ccccc34)c2=O)cc1 [Compound 119]
0.51 | 64 | COc1ccc(Cn2ccc(C)c(NC(=O)[C@H](Cc3ccc(C(C)(C)C(=O)O)cc3)NC(=O)Cc3ccc(Br)c4ccccc34)c2=O)cc1 [Compound 111]
5.4 | 29 | Cc1ccn(CC2CCCCC2)c(=O)c1NC(=O)C(Cc1ccc(C(C)(C)C(=O)O)cc1)NC(=O)C(C)(C)c1ccc2ccccc2c1 (stereo not drawn) [Compound 196]
2.5 | 82 | COc1ccc(Cn2ccc(C)c(NC(=O)C(Cc3ccc(C(C)(C)C(=O)O)cc3)NC(=O)C(C)(C)c3ccccc3)c2=O)cc1 (stereo not drawn) [Compound 180]
1.5 | 60 | COc1ccc(Cn2ccc(C)c(NC(=O)[C@H](Cc3ccc(C(C)(C)C(=O)O)cc3)NC(=O)C(C)c3ccc(CC(C)C)cc3)c2=O)cc1 (stereo partly drawn) [Compound 112]
0.37 | 108 | COc1ccc(Cn2ccc(C)c(NC(=O)[C@H](Cc3ccc(C(C)(C)C(=O)O)cc3)NC(=O)Cc3c(C)cc(C)cc3C)c2=O)cc1 [Compound 117]

— patent US6284768A, “Src family SH2 domain inhibitors” (Boehringer Ingelheim Pharmaceuticals, Inc., priority 1999, dated 2001)
